Reference: PubChem BioAssay (NCI)
Converted amounts (≈) assume the structure as drawn.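 Cells were grown in 96-well plates and exposed to each compound for 48 hours at five concentrations; endpoints were interpolated linearly between bracketing concentrations, or set to the highest concentration if not reached. GI50: concentration for 50% inhibition of growth. TGI: concentration producing complete growth inhibition.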

What was measured:
Assay in all cases: NCI tumour cell line growth inhibition, 48 h
DMS 273 small cell lung = system: DMS 273 small cell lung
DLD-1 colon = system: DLD-1 colon
HOP-18 NSCLC = system: HOP-18 NSCLC
M19-MEL melanoma = system: M19-MEL melanoma
DMS 114 small cell lung = system: DMS 114 small cell lung
SNB-78 CNS = system: SNB-78 CNS
LXFL 529 NSCLC = system: LXFL 529 NSCLC
XF 498 CNS = system: XF 498 CNS
RXF-631 renal = system: RXF-631 renal
SN12K1 renal = system: SN12K1 renal
P388/ADR leukemia = system: P388/ADR leukemia
P388 leukemia = system: P388 leukemia

Compound | TGI (DMS 273 small cell lung) | TGI (DLD-1 colon) | TGI (HOP-18 NSCLC) | TGI (M19-MEL melanoma) | TGI (DMS 114 small cell lung) | TGI (SNB-78 CNS) | TGI (LXFL 529 NSCLC) | TGI (XF 498 CNS) | TGI (RXF-631 renal) | GI50 (DLD-1 colon) | GI50 (M19-MEL melanoma) | GI50 (SN12K1 renal) | TGI (SN12K1 renal) | GI50 (DMS 114 small cell lung) | GI50 (P388/ADR leukemia) | TGI (P388/ADR leukemia) | TGI (P388 leukemia)
O=C1OCc2nc3c(c(-c4ccccc4C(F)(F)F)c21)C(=O)OC3 | > 100 µM | > 100 µM | > 100 µM | > 100 µM | > 100 µM | > 100 µM | > 100 µM | – | – | – | – | – | – | – | – | – | –
O=[N+]([O-])c1ccc(N=P(c2ccccc2)(c2ccccc2)c2ccccc2)n2nnnc12 | > 100 µM | – | > 100 µM | > 100 µM | > 100 µM | – | > 100 µM | > 100 µM | – | – | – | – | – | – | – | – | –
Cc1c(CCCl)c(Cl)n2c(nc3ccccc32)c1C#N | 3.15 µM | 2.44 µM | 3.95 µM | 9.76 µM | 2.84 µM | > 100 µM | 1.63 µM | – | 2.18 µM | – | – | – | – | – | – | – | –
CC/C(CC(=O)CCC(=O)Nc1ccc(C)c(C)c1)=N\NC(=O)c1cc2ccccc2cc1O | – | > 100 µM | 88.1 µM | > 100 µM | > 100 µM | > 100 µM | > 100 µM | – | > 100 µM | – | – | – | – | – | – | – | –
Cc1c2ccncc2c(C)c2c1[nH]c1ccc(O)cc12 | – | 0.883 µg/mL | – | 0.388 µg/mL | 0.227 µg/mL | – | – | – | – | 0.023 µg/mL (≈ 0.0875 µM) | 0.0231 µg/mL (≈ 0.0881 µM) | 0.0168 µg/mL (≈ 0.0639 µM) | 0.182 µg/mL | 0.0226 µg/mL (≈ 0.0863 µM) | 0.014 µg/mL (≈ 0.0532 µM) | 1.75 µg/mL | 0.232 µg/mL
Cc1cc2c3ccccc3n3c2c2c1OC1(C)CCC(C2C1)C3(C)C (stereo unspecified) | > 25 µM | > 25 µM | – | > 25 µM | > 25 µM | > 25 µM | > 25 µM | > 25 µM | – | – | – | – | – | – | – | – | –
COc1ccc(N2C(=O)[C@@H]3[C@@H]4CC(C)CC[C@@H]4c4c([nH]c5ccccc45)[C@@H]3C2=O)cc1 (stereo partly specified) | 44.3 µM | > 58.4 µM | 14 µM | > 100 µM | > 59.5 µM | 27.2 µM | > 88 µM | 26 µM | – | – | – | – | – | – | – | – | –
O=C1N[C@@H]([C@H]2CC[C@H](Cl)CN2)C(=O)N[C@H]1[C@H]1CC[C@H](Cl)CN1 | 7.35 µM | 286 µM | 139 µM | 23.5 µM | 10.6 µM | 87.8 µM | – | 0.819 µM | – | – | – | – | 13.5 µM | – | – | 23.1 µM | 20.3 µM
COC(=O)CC(=O)OC1C[C@@H]2CCC3C(C)(C)CCC[C@]3(C)C23CC[C@@]1(C)C3 (stereo partly specified) | – | 34.2 µM | – | 36.3 µM | 37.9 µM | 42.5 µM | – | 34.4 µM | – | – | – | – | – | – | – | – | –
CCN(CC)C(=O)Cc1[nH][nH]c(=O)c1C(=O)N(CC)CC | > 100 µM | > 100 µM | > 100 µM | > 100 µM | > 100 µM | > 100 µM | > 100 µM | > 100 µM | – | – | – | – | – | – | – | – | –
COC1=CC(=O)C2(C=C1OC)OC[C@H]1Oc3c(ccc4c3C=CC(C)(C)O4)C(=O)[C@H]12 (stereo partly specified) | > 100 µM | > 100 µM | – | > 100 µM | 94.5 µM | > 100 µM | > 100 µM | > 100 µM | > 100 µM | – | – | – | – | – | – | – | –
O=C1C=C2SC3C[C@@]24CC1(O)[N+]1=c2c4c(c(O)c4c2=C(C=N4)CC1)N3 | 2.97 µM | 2.65 µM | 3.9 µM | 0.773 µM | 0.504 µM | 4.21 µM | – | 3.28 µM | – | – | – | – | 2.73 µM | – | – | – | 4.78 µM
CCCOC(=O)CCC(NC(=O)c1ccc(Nc2nc3ccccc3nc2-c2cccs2)cc1)C(=O)OCCC (stereo unspecified) | > 100 µM | – | > 100 µM | > 100 µM | – | > 100 µM | > 100 µM | > 100 µM | > 100 µM | – | – | – | – | – | – | – | –
O=S(c1ccc(O)cc1)c1ccc(O)cc1 | > 100 µM | > 100 µM | – | > 100 µM | > 100 µM | – | – | > 100 µM | > 100 µM | – | – | – | – | – | – | – | –
CNC(=O)OC1/C(C)=C\C(C)C(O)C(OC)CC(C)CC2=C(OC)C(=O)C=C(C2=O)N(C)C(=O)/C(C)=C/C=C\C1OC (stereo unspecified) | 14.8 µM | 16.4 µM | 22.7 µM | 14.7 µM | 12.6 µM | 30.3 µM | 19.6 µM | 10 µM | 41.2 µM | – | – | – | – | – | – | – | –
Cc1[nH]c2c(C)c3c([nH]c4ccc(Cl)cc43)c(C)c2c(=O)c1C | 96.1 µM | 73.3 µM | > 100 µM | 54.9 µM | 83.3 µM | > 100 µM | – | > 100 µM | – | – | – | – | – | – | – | – | –
COC(OC)c1cccc2c1C(=O)CCC1(CC2)OCCCCO1 | > 100 µM | > 100 µM | > 100 µM | > 100 µM | > 100 µM | > 100 µM | > 100 µM | – | – | – | – | – | – | – | – | – | –
CN1C/C(=C\c2ccccc2)C2=NN(C(N)=S)[C@H](c3ccccc3)[C@@H]2C1 | > 100 µM | > 100 µM | – | > 100 µM | – | > 100 µM | > 100 µM | > 100 µM | – | – | – | – | – | – | – | – | –
